The structures appear in SMILES notation. Where two headings read alike, the source gives them in different places.

Data set [1] is described as follows: Maximum tolerated dose in mice. The conditions noted are these: mouse, in vivo, daily (×5) schedule. On the procedure: (§1) The in vivo activity of SIQ-01 was studied. The maximum tolerated dose of SIQ-01 in mice is 30 mg/kg on a daily (×5) schedule. Combination treatment of SIQ-01 and cisplatin was active against the HCT116 colon carcinoma tumour when administered to tumour-bearing mice (15 mg SIC-01/kg administered by intraperitoneal injection on days 1-5 and 8-10; 4 mg cisplatin/kg administered subcutaneously on days 1 and 8), and gave a maximum T/C (Test/Control) of 49%. Treatment with cisplatin alone (same regimen) gave a maximum T/C (Test/Control) of 56%.

For data set [2], the system named is 60 human cancer cell lines. Put plainly: NCI in vitro 60 cell panel (48 hour drug exposure). It is filed as cell-based. Conditions: for LC50: read-out: Mean log10 LC50 (converted). As for the experimental part: (§2) Compounds were tested for in vitro activity (48 hour drug exposure) across 60 human cancer cell lines through the National Cancer Institute (NCl) Developmental Therapies Screening Program (Boyd et al., 1995).

Data set [3] has as its system HCT116 colon carcinoma tumour. Put plainly: HCT116 colon carcinoma tumour in tumour-bearing mice. It is filed as in vivo. On the procedure:
as §1

Data set [4] has as its system HCT-116 (colon). Kind of data set: NCI in vitro 60 cell panel, HCT-116. Format: cell-based. Conditions: Homo sapiens, read-out: Most Senstive Cells Lines mean log10 LC50 (converted). On the procedure: as §2
For data set [5], the system named is CAKI-1 (renal). Put plainly: NCI in vitro 60 cell panel, CAKI-1. The conditions noted are these: Homo sapiens, read-out: Most Senstive Cells Lines mean log10 LC50 (converted). Format: cell-based. As for the experimental part:
as §2

The test system of data set [6] is HT29 colon carcinoma. Put plainly: Growth inhibitory assay (MTT, 72 hour exposure), HT29. Conditions: Homo sapiens, HT 29, MTT. Format: cell-based. As for the experimental part:
(§3) Compounds were prepared as 10 mM top stocks, dissolved in DMSO, and stored at 4° C., protected from light, for a maximum period of 4 weeks. Human derived cell lines (HCT 116, HT29 colon carcinoma) were routinely cultivated at 37° C. in an atmosphere of 5% CO2 in RPMI 1640 medium supplemented with 2 mM L-glutamine and 10% fetal calf serum and subcultured twice weekly to maintain continuous logarithmic growth. Cells were seeded into 96-well microtiter plates at a density of 5×10^3 per well and allowed 24 hours to adhere before drugs were introduced (final concentration 0.1 nM-100 μM, n=8). Serial drug dilutions were prepared in medium immediately prior to each assay. At the time of drug addition and following 72 hour exposure, MTT was added to each well (final concentration 400 µg/mL). Incubation at 37° C. for 4 hr allowed reduction of MTT by mitochondrial dehydrogenase to an insoluble formazan product. Well contents were aspirated and formazan solubilized by addition of DMSO:glycine buffer (pH 10.5) (4:1). Absorbance was measured using an Anthos Labtec systems plate reader at 550 nm, and used as a measure of cell viability; thus cell growth or drug toxicity was determined.

For data set [7], the system named is HCT 116 colon carcinoma. Kind of data set: Growth inhibitory assay (MTT, 72 hour exposure), HCT 116. Format: cell-based. The conditions noted are these: Homo sapiens, HCT 116, MTT. On the procedure: as §3
Data set [8] has as its system LOX IMVI (melanoma). Kind of data set: NCI in vitro 60 cell panel, LOX IMVI. Conditions: Homo sapiens, read-out: Most Senstive Cells Lines mean log10 LC50 (converted). Format: cell-based. As for the experimental part: as §2
In data set [9] the test system is ACHN (renal). Put plainly: NCI in vitro 60 cell panel, ACHN. It is filed as cell-based. Conditions: Homo sapiens, read-out: Most Senstive Cells Lines mean log10 LC50 (converted). On the procedure: as §2
For data set [10], the target named is T1, Thioredoxin/Thioredoxin Reductase (Tx/TR) (Homo sapiens, UniProt P10599).
T1 construct: was purified from human placenta as previously described; made in house; host or cells: hTrx: Escherichia coli; TR: purified from human placenta tissue
T1 sequence (P10599 2-105 limits assumed): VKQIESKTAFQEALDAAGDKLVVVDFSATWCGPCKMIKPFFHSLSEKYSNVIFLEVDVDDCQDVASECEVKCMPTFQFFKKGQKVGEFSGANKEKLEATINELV
Kind of data set: Thioredoxin/thioredoxin reductase-catalysed reduction of insulin. Format: biochemical. The conditions noted are these: 30 min at 37° C. As for the experimental part: Assays were performed using methods analogous to those described in Kirkpatrick et al., 1999 and Kunkel et al., 1997.
[…] (specific activity 43.6 μmol NADPH reduced/min/mg protein at 21° C.) was purified from human placenta as previously described (Oblong et al., 1993). Recombinant hTrx was expressed in Escherichia coli and purified as previously described (Gasdaska et al., 1994). The Trx and TR were stored at −20° C. with 5 mM dithiothreitol (DTT) which was removed before use with a desalting column (PDIO, Pharmacla, Uppsala, Sweden).
Microtitre plate colorimetric assays, based on the increase in absorbance at 405 nm which occurs as dithionitrobenzoic acid (DTNB) is reduced by the enzyme-mediated transfer of reducing equivalents from NADPH, were used to measure TR/Trx-dependent insulin-reduction and TR activity (see, e.g., Kunkel et al., 1997).
Thioredoxin reductase/thioredox […] insulin reducing activity was measured in an incubation with a final volume of 60 μL containing 100 mM HEPES buffer, pH 7.2, 5 mM EDTA (HE buffer), 1 mM NADPH, 1.0 μM thioredoxin reductase, 0.8 μM thioredoxin, and 2.5 mg/ml bovine insulin in flat-bottom 96-well microtitre plates. […] The reaction was stopped by the addition of 100 μL of 6 M guanidine HCl, 50 mM Tris, pH 8.0, and 10 mM DTNB, and the absorbance measured at 405 nm.

The test system of data set [11] is UO-31 (renal). Put plainly: NCI in vitro 60 cell panel, UO-31. It is filed as cell-based. Conditions: Homo sapiens, read-out: Most Senstive Cells Lines mean log10 LC50 (converted). On the procedure:
as §2

Data set [12] deals with U251 (CNS cancer). Kind of data set: NCI in vitro 60 cell panel, U251. Conditions: Homo sapiens, U-251, read-out: Most Senstive Cells Lines mean log10 LC50 (converted). It is filed as cell-based. On the procedure:
as §2

Data set [13] has as its system RXF 393 (renal). Kind of data set: NCI in vitro 60 cell panel, RXF 393. The conditions noted are these: Homo sapiens, read-out: Most Senstive Cells Lines mean log10 LC50 (converted). Format: cell-based. On the procedure:
as §2

For data set [14] the following is noted: in fetal calf serum; cited from earlier work.
Setting [15] is: 60 cell, as in Table 3, read-out: Mean GI50.
The mark [16] stands for this setting: mean across 60 cell lines, 48 hour drug exposure.
[17] abbreviates: mean across 60 cell lines, 48 hour drug exposure, read-out: mean log10 GI50 (converted).

Take `O=C1C=CC(O)(c2cc3ccccc3n2S(=O)(=O)c2ccccc2)C=C1` [SIQ-01, 4-(1-benzenesulfonyl-1H-indol-2-yl)-4-hydroxy-cyclohexa-2,5-dienone]: the maximum tolerated dose (MTD) (as a rule, the highest dose tested that stayed within the study's limit of toxicity) at 5 days in data set [1] was determined as 30 mg/kg. The figures for the concentration for 50% growth inhibition (GI50) in data set [2] (setting [15]) and in data set [2] (setting [17]) were 152 nM and 38.9 nM, respectively. Moreover, the median lethal concentration (LC50) – broadly, the concentration lethal to half of the exposed cells or organisms – in data set [2] (setting [16]) is 2950 nM. Further, the “maximum T/C (Test/Control)” value in data set [3] (combination with cisplatin: 15 mg/kg i.p. days 1-5 and 8-10, 4 mg cisplatin/kg s.c. days 1 and 8) turned out to be 49%. The CC50 in data set [4] was 33.1 nM; in data set [5], 52.5 nM. For the same compound, the IC50 (usually the concentration that gives 50% inhibition) in [6] came out at 259 nM; in [7] it was 86 nM.
Turning to `COc1ccc2c(c1)cc(C1(O)C=CC(=O)C=C1)n2S(=O)(=O)c1ccccc1` [SIQ-02, 4-(1-benzenesulfonyl-5-methoxy-1H-indol-2-yl)-4-hydroxy-cyclohexa-2,5-dienone], the LC50 in data set [2] (setting [16]) is 6170 nM. The GI50 – broadly, the concentration at which growth is held to half of that of the control – in [2] (setting [17]) was 135 nM. In addition, the CC50 in data set [8] is 468 nM; in data set [9], 447 nM.
Take `O=C1C=CC(O)(c2cc3cc(F)ccc3n2S(=O)(=O)c2ccccc2)C=C1` [SIQ-03, 4-(1-benzenesulfonyl-5-fluoro-1H-indol-2-yl)-4-hydroxy-cyclohexa-2,5-dienone]: the GI50 in data set [2] (setting [15]) is 527 nM; in data set [2] (setting [17]), 66.1 nM. For the same compound, in data set [2] (setting [16]), the LC50 was 3240 nM. The results for the CC50 in data set [4] and in [8] were 50.1 nM and 63.1 nM, respectively. Also, the IC50 was found to be 347 nM in data set [6] and 68 nM in data set [7].
As for `Cc1ccc(S(=O)(=O)n2c(C3(O)C=CC(=O)C=C3)cc3ccccc32)cc1` [SIQ-04], the IC50 in data set [10] was less than 100000 nM; in [6], 206 nM; in [7], 36 nM. Also, the concentration for 50% growth inhibition (GI50) in [2] (setting [15]) was less than 100 nM; in data set [2] (setting [17]), 112 nM. Besides, the LC50 in data set [2] (setting [16]) was 7240 nM. Moreover, the CC50 was 47.9 nM in data set [4] and 234 nM in [8].
`COc1ccc(S(=O)(=O)n2c(C3(O)C=CC(=O)C=C3)cc3ccccc32)cc1` [SIQ-05]: the LC50 in data set [2] (setting [16]) is 6310 nM. Also, the GI50 in data set [2] (setting [17]) is 162 nM. The CC50 in data set [4] was 112 nM; in data set [8], 380 nM. Also, the IC50 in data set [6] came to 420 nM; in data set [7] it was 203 nM.
As for `O=C1C=CC(O)(c2cc3ccccc3n2S(=O)(=O)c2ccc(F)cc2)C=C1` [SIQ-06, 4-[1-(4-fluoro-benzenesulfonyl)-1H-indol-2-yl]-4-hydroxy-cyclohexa-2,5-dienone], the median lethal concentration (LC50) in data set [2] (setting [16]) is 7760 nM. The GI50 in [2] (setting [17]) was 234 nM. Further, the results for the CC50 in data set [11] and in data set [4] were 631 nM and 363 nM, respectively.
For the compound `O=C1C=CC(O)(c2cc3ccccc3n2S(=O)(=O)c2ccc3ccccc3c2)C=C1` [SIQ-07], the CC50 is 513 nM in [12] and 372 nM in [4]. Besides, the LC50 in data set [2] (setting [16]) was 5620 nM. In data set [2] (setting [17]), the concentration for 50% growth inhibition (GI50) is 191 nM. Besides, the IC50 in data set [6] turned out to be 274 nM; in [7], 193 nM.
With `CC(C)c1cc(C(C)C)c(S(=O)(=O)n2c(C3(O)C=CC(=O)C=C3)cc3ccccc32)c(C(C)C)c1` [SIQ-09], the LC50 in [2] (setting [16]) was 11200 nM. Moreover, the GI50 in data set [2] (setting [17]) is 427 nM. In addition, the CC50 in data set [13] was 776 nM; in [4], 550 nM.
Take `O=C1C=CC(O)(c2cc3ccccc3n2S(=O)(=O)c2ccccc2)c2ccccc21` (stereo not drawn) [SIQ-10, 4-(1-benzenesulfonyl-1H-indol-2-yl)-4-hydroxy4H-naphthalen-1-one]: the LC50 in data set [2] (setting [16]) is 7760 nM. For the same compound, in data set [2] (setting [17]), the GI50 was 447 nM. For the same compound, the results for the CC50 in data set [4] and in [8] were 794 nM and 776 nM, respectively. The IC50 in data set [6] stood at 444 nM; in [7] it was 205 nM.
As for `Cc1ccc(S(=O)(=O)n2c(C3(O)C=CC(=O)c4ccccc43)cc3ccccc32)cc1` (stereo not drawn) [SIQ-11, 4-hydroxy 4-[1-(toluene-4-sulfonyl)-1H-indol-2-yl]-4H-naphthalen-1-one], the GI50 in data set [2] (setting [15]) is greater than 1000 nM; in data set [2] (setting [17]), 389 nM. In data set [2] (setting [16]), the LC50 is 5620 nM. Moreover, the CC50 in data set [4] was 490 nM; in data set [8] it was 724 nM. The IC50 came out at 391 nM in data set [6] and 155 nM in data set [7].
As for `N.N.[Cl][Pt][Cl]` [cisplatin, reference compound], the “maximum T/C (Test/Control)” value in [3] (cisplatin alone, 4 mg/kg s.c. days 1 and 8) was 56%.
Consider `O=CN/C=C/c1cc(O)ccc1O` [erbstatin], for which the half-life (in general, how long it takes for the measured level to halve) in data set [14] is given as less than 30 min.

(Values after US7307099B2, “4-(1-(sulfonyl)-1h-indol-2-yl)-4-(hydroxy)-cyclohexa-2,5-dienone compounds and analogs thereof as therapeutic agents” (Cancer Research Technology Limited, priority 2002, dated 2007).)
